Experimental data published in PMC11650766 (ACS Infectious Diseases, 2024).

Key:
Experiment in all cases: iSPP stabilization in E. coli K12 lysate at […], LC-MS/MS
Assay type in all cases: cell-based
PBP4 (DacB) = PBP4 (DacB) (Escherichia coli, UniProt P24228)
PBP1a (MrcA) = target: T1, PBP1a (MrcA) (Escherichia coli, UniProt P02918)
T1 sequence (P02918 1-850): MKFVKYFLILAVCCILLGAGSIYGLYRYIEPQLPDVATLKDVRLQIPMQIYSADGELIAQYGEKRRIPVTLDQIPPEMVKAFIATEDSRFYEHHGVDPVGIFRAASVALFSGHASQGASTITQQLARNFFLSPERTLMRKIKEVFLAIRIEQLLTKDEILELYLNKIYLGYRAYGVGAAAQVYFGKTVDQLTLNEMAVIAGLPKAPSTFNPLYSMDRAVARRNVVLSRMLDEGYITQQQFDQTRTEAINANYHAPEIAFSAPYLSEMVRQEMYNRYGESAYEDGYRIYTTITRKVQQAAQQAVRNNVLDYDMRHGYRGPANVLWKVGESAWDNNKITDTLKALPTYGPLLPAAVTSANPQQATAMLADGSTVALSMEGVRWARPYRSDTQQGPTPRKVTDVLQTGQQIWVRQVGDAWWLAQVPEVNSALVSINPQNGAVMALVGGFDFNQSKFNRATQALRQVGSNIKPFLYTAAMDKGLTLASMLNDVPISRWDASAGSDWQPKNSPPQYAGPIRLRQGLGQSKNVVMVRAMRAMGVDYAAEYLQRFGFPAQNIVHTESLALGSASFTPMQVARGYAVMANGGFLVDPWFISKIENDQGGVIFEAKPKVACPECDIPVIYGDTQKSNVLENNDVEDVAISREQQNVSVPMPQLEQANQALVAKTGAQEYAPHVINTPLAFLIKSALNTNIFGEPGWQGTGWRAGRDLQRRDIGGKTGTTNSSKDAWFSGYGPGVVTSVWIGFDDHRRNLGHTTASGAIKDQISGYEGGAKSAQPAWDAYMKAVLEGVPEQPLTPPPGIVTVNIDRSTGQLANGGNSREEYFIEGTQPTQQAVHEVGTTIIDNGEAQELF

[1] = target: RpoB (RNA polymerase β-subunit) (Escherichia coli, UniProt P0A8V2)
Chain of RpoB (RNA polymerase β-subunit) (P0A8V2 whole entry): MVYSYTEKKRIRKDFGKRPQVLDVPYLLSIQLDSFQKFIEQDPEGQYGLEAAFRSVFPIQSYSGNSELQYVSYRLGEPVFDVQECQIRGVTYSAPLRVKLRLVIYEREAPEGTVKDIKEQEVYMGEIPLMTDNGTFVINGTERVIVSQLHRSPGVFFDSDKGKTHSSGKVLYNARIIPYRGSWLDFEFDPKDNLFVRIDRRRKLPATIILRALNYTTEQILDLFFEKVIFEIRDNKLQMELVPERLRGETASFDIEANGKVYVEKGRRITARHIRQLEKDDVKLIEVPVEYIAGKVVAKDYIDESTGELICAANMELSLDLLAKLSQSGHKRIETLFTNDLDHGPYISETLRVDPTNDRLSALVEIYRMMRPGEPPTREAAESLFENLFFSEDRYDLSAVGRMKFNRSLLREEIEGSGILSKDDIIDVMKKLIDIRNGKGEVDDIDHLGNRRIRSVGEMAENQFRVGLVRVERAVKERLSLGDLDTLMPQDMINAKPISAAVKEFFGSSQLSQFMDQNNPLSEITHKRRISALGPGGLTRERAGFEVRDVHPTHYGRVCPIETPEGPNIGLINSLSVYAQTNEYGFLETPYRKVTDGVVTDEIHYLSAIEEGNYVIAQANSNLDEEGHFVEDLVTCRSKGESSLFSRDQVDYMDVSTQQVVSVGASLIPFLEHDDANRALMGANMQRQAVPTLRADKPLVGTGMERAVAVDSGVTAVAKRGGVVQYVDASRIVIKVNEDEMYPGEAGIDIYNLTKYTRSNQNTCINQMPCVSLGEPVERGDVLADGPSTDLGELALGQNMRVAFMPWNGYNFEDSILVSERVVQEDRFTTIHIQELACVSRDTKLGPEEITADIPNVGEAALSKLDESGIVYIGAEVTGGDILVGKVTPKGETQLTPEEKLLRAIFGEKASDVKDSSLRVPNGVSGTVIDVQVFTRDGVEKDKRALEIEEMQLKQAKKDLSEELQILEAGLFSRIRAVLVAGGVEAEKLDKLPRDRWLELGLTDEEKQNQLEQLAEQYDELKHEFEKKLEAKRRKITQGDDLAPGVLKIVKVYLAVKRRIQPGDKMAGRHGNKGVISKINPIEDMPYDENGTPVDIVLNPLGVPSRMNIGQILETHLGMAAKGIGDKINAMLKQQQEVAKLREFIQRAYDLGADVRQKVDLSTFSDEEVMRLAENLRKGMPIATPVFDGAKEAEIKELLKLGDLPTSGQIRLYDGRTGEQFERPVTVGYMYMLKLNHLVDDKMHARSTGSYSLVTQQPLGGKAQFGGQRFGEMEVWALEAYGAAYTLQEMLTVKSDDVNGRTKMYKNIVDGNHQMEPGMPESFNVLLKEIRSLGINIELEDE
Chain of RpoB (RNA polymerase β-subunit) (P0A8T7 whole entry partner): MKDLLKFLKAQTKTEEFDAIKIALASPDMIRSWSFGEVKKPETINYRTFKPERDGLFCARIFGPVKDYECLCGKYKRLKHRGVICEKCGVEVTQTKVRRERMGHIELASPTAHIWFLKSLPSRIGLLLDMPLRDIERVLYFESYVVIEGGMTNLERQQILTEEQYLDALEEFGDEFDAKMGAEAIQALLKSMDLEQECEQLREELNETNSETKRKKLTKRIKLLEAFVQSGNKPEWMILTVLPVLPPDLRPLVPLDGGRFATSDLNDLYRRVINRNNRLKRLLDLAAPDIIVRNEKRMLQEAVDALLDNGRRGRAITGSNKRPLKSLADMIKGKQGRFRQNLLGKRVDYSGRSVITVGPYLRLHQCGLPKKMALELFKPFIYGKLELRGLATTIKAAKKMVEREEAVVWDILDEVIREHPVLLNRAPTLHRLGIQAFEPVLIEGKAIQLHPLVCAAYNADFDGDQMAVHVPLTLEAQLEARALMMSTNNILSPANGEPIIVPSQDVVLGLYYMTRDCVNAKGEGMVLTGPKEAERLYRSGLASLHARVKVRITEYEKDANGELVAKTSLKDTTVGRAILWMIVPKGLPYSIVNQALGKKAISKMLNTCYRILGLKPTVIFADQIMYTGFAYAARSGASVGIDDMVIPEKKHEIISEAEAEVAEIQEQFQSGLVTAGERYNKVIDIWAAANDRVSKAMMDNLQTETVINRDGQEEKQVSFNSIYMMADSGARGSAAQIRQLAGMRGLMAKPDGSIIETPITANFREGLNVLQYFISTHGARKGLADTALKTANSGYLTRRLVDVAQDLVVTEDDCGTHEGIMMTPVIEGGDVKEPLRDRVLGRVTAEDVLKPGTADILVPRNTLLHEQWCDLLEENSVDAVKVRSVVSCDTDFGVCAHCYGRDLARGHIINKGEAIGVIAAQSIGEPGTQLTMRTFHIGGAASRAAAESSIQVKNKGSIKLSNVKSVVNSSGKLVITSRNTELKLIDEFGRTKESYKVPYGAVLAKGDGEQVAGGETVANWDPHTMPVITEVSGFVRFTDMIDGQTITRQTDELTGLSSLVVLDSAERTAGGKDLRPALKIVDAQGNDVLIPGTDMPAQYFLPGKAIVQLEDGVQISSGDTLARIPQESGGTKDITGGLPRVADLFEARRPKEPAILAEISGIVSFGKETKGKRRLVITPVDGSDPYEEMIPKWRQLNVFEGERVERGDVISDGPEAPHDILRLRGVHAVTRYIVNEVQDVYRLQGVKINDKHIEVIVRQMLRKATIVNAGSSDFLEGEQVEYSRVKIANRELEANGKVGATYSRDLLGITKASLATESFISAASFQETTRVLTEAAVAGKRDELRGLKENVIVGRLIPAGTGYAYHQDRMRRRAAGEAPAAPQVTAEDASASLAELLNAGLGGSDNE
Chain of RpoB (RNA polymerase β-subunit) (P0A7Z4 whole entry partner): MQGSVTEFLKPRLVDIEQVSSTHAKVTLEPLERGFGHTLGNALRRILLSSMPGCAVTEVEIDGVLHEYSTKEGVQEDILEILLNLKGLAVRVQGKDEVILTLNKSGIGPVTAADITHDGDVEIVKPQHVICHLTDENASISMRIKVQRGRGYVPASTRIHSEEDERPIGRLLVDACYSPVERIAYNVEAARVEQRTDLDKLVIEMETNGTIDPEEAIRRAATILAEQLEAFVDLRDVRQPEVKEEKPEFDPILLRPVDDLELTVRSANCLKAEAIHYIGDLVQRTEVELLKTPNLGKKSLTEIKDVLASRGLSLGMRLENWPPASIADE

Chain of PBP4 (DacB) (P24228 21-477): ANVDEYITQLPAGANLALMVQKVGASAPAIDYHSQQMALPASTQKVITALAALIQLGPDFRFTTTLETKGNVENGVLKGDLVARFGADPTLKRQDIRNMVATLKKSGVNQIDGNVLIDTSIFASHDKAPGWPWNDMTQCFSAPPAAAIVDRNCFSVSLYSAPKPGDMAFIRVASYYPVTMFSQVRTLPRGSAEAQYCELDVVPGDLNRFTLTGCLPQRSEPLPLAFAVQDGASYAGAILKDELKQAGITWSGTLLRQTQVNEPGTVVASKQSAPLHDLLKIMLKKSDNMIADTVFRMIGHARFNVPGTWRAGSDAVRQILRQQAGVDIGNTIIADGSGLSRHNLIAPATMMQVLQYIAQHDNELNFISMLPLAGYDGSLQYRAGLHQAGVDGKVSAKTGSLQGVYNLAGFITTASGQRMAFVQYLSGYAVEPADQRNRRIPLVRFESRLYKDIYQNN

Row | SMILES | iSPP stabilization in E. coli K12 lysate at 10 μM, LC-MS/MS (PBP4 (DacB)) | iSPP stabilization in E. coli K12 lysate at 10 μM, LC-MS/MS (PBP1a (MrcA)) | iSPP stabilization in E. coli K12 lysate at 10 μM, LC-MS/MS [1]
1 | CC1(C)S[C@@H]2[C@H](NC(=O)[C@H](N)c3ccccc3)C(=O)N2[C@H]1C(=O)O [ampicillin] | Ampicillin led to a significant stabilization of PBP1a (MrcA) and PBP4 (DacB), the two top hits | Ampicillin led to a significant stabilization of PBP1a (MrcA) and PBP4 (DacB), the two top hits | 
2 | CO[C@H]1/C=C/O[C@@]2(C)Oc3c(C)c(O)c4c(O)c(c(/C=N/N5CCN(C)CC5)c(O)c4c3C2=O)NC(=O)/C(C)=C\C=C\[C@H](C)[C@H](O)[C@@H](C)[C@@H](O)[C@@H](C)[C@H](OC(C)=O)[C@@H]1C [rifampicin] |  |  | for rifampicin, we observed (Figure 2A) the stabilization of other subunits within the RNAP complex in addition to the primary target RpoB
